For this series, the system named is CCRIS mutagenicity, Ames/micronucleus/aberration tests. The series is described as follows: CCRIS mutagenicity studies. The note with it: Test System: AMES SALMONELLA TYPHIMURIUM
The mark [1] stands for this setting: Strain/Indicator: TA98, Metabolic Activation: NONE, Method: STANDARD PLATE.
Setting [2] is: Strain/Indicator: TA100, Metabolic Activation: NONE, Method: STANDARD PLATE.

Active and inactive are the calls of the source. The rule behind the calls is not given here.

As to `CCCCN(N=O)/C(N)=N/[N+](=O)[O-]`, the mutagenic call is “active; positive” (Strain/Indicator: TA100, Metabolic Activation: NONE, Method: PREINCUBATION); “active; positive” (Strain/Indicator: TA100, Metabolic Activation: RAT, LIVER, S-9, KC500 OR PHENOBARBITAL, Method: LIQUID SUSPENSION); “active; positive” (Strain/Indicator: TA1535, Metabolic Activation: NONE, Method: PREINCUBATION); “active; positive” (Strain/Indicator: TA1535, Metabolic Activation: NONE, Method: STANDARD PLATE); “active; positive” (Strain/Indicator: TA1535, Metabolic Activation: RAT, LIVER, S-9, KC500 OR PHENOBARBITAL, Method: LIQUID SUSPENSION); “active; positive” (Strain/Indicator: YG7104, Metabolic Activation: NONE, Method: PREINCUBATION). Further, the mutagenic call by setting is: (Strain/Indicator: YG7108, Metabolic Activation: NONE, Method: PREINCUBATION) “active; positive”; (Strain/Indicator: YG7112, Metabolic Activation: NONE, Method: PREINCUBATION) “active; positive”; (Strain/Indicator: YG7113, Metabolic Activation: NONE, Method: PREINCUBATION) “active; positive”.

With `O=C(c1ccc(F)cc1)[C@@H]1O[C@@H]1c1ccccc1`, the mutagenic call by setting is: under setting [1], “inactive; negative”; (Strain/Indicator: TA98, Metabolic Activation: RAT, LIVER, S-9, AROCLOR 1254, Method: STANDARD PLATE) “inactive; negative”; under setting [2], “active; positive”; (Strain/Indicator: TA100, Metabolic Activation: RAT, LIVER, S-9, AROCLOR 1254, Method: STANDARD PLATE) “inactive; negative”.

Regarding `CC/C=C\C=C\CCCCCCOC(C)=O`, the mutagenic call by setting is: under setting [1], “inactive; negative”; (Strain/Indicator: TA98, Metabolic Activation: RAT, LIVER, S-9, Method: STANDARD PLATE) “inactive; negative”; under setting [2], “inactive; negative”; (Strain/Indicator: TA100, Metabolic Activation: RAT, LIVER, S-9, Method: STANDARD PLATE) “inactive; negative”; (Strain/Indicator: TA102, Metabolic Activation: NONE, Method: STANDARD PLATE) “inactive; negative”; (Strain/Indicator: TA102, Metabolic Activation: RAT, LIVER, S-9, Method: STANDARD PLATE) “inactive; negative”.

As for `CCOC(=O)CC(C)C`, the mutagenic call was “inactive; negative” (Strain/Indicator: TA97, Metabolic Activation: NONE, Method: PREINCUBATION); “inactive; negative” (Strain/Indicator: TA97, Metabolic Activation: RAT, LIVER, S-9, AROCLOR 1254, Method: PREINCUBATION); “inactive; negative” (Strain/Indicator: TA102, Metabolic Activation: NONE, Method: PREINCUBATION); “inactive; negative” (Strain/Indicator: TA102, Metabolic Activation: RAT, LIVER, S-9, AROCLOR 1254, Method: PREINCUBATION).

The values are drawn from PubChem BioAssay AID1259407 (Chemical Carcinogenesis Research Information System (CCRIS), 2018).
